Test results published in US9765075B2, “Substituted bridged urea analogs as sirtuin modulators” (GLAXOSMITHKLINE LLC, priority 2013, dated 2017).
Where two headings read alike, the source gives them in different places.

Target: T1, SIRT1 (Homo sapiens, UniProt Q96EB6)
T1 sequence (Q96EB6 1-747): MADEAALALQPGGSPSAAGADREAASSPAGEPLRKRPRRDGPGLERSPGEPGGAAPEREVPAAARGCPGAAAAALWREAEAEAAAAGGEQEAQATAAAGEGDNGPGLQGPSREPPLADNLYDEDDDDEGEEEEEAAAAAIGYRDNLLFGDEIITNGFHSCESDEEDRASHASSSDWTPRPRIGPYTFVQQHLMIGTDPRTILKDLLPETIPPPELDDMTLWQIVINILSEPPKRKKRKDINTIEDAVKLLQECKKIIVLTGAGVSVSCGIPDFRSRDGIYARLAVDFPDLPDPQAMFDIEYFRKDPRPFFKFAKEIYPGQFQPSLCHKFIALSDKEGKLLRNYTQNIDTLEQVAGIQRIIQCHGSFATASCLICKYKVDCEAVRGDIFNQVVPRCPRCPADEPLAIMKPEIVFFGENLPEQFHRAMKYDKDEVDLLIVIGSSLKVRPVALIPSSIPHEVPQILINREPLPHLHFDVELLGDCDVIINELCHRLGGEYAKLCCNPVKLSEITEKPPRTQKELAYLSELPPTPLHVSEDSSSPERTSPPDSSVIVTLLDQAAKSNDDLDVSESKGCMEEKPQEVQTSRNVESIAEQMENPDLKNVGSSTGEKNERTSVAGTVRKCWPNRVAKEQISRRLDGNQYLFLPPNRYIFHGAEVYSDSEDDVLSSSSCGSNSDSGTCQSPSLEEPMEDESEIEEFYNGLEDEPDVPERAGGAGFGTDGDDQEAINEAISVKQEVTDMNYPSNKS
Test: Trp mass spectrometry assay (SIRT1 activation)
Assay type: biochemical
Settings: for Emax: percent maximum fold activation of SIRT1, read-out: Tryp % Fold Act
Text: Mass spectrometry based assays were used to identify modulators of SIRT1 activity. […] The peptide was labeled with the fluorophore 5TMR (excitation 540 nm/emission 580 nm) at the C-terminus. The sequence of the peptide substrate was based on p53 with several modifications. In addition, the methionine residue naturally present in the sequence was replaced with the norleucine because the methionine may be susceptible to oxidation during synthesis and purification. The Trp based assay utilized a peptide having an amino acid residues as follows: Ac-R-H-K-K(Ac)-W-NH2 (SEQ ID NO: 2).
The Trp mass spectrometry assay was conducted as follows. 0.5 μM peptide substrate and 120 μM βNAD^+ were incubated with 10 nM SIRT1 for 25 minutes at 25° C. in a reaction buffer (50 mM HEPES pH 7.5, […] NaCl, 1 mM DTT, 0.05% BSA). The SIRT1 protein was obtained by cloning the SirT1 gene into a T7-promoter containing vector, which was then expressed in BL21(DE3) bacterial cells and purified as described in further detail below. Test compound was added at varying concentrations to this reaction mixture and the resulting reactions were monitored. After the 25 minute incubation with SIRT1, 10 μL of 10% formic acid was added to stop the reaction. The resulting reactions were sealed and frozen for later mass spec analysis. The relative SIRT1 activity was then determined by measuring the amount of 0-acetyl-ADP-ribose (OAADPR) formed (or, alternatively, the amount of deacetylated Trp peptide generated) by the NAD-dependent sirtuin deacetylation reaction in the presence of varying concentrations of the test compound versus control reactions lacking the test compound. The degree to which the test agent activated deacetylation by SIRT1 was expressed as EC1.5 (i.e., the concentration of compound required to increase SIRT1 activity by 50% over the control lacking test compound), and Percent Maximum Activation (i.e., the maximum activity relative to control (100%) obtained for the test compound).
A control for activation of sirtuin activity was conducted using 10 nM of sirtuin protein, with 1 μL of DMSO in place of compound, to determine the amount of deacetylation of the substrate at a given time point within the linear range of the assay. This time point was the same as that used for test compounds and, within the linear range, the endpoint represents a change in velocity.
For the above assay, SIRT1 protein was expressed and purified as follows. The SirT1 gene was cloned into a T7-promoter containing vector and transformed into BL21(DE3). The protein was expressed by induction with 1 mM IPTG as an N-terminal His-tag fusion protein at 18° C. overnight and harvested at 30,000×g. Cells were lysed with lysozyme in lysis buffer (50 mM Tris-HCl, 2 mM Tris[2-carboxyethyl] phosphine (TCEP), 10 μM ZnCl2, 200 mM NaCl) and further treated with sonication for 10 min for complete lysis. The protein was purified over a Ni-NTA column (Amersham) and fractions containing pure protein were pooled, concentrated and run over a sizing column (Sephadex S200 26/60 global). The peak containing soluble protein was collected and run on an Ion-exchange column (MonoQ). Gradient elution (200 mM-500 mM NaCl) yielded pure protein. This protein was concentrated and dialyzed against dialysis buffer (20 mM Iris-HCl, 2 mM TCEP) overnight. The protein was aliquoted and frozen at −80° C. until further use.

[1] = concentration of test compound that results in 150% activation of SIRT1, Trp peptide substrate
[2] = Trp mass spectrometry assay, EC1.5 = concentration giving 150% activation of SIRT1
[3] = Trp mass spectrometry assay, EC1.5 = concentration of test compound that results in 150% activation of SIRT1

SMILES	Tryp AVG EC1.5 (μM) [1]	Emax (Trp peptide substrate) [%]	Tryp AVG EC1.5 (μM) [2]	Emax (Trp mass spectrometry assay) [%]	Tryp AVG EC1.5 (μM) [3]
O=C(NCCc1cccnc1)N1c2nc(-c3cccc(C(F)(F)F)c3)ccc2N2CC[C@H]1C2 [Example 615]	B (EC1.5 1-25 μM)	≥ 150			
NC(=O)CN1CCC(c2cccc(NC(=O)N3c4nc(-c5cccc(C(F)(F)F)c5)ccc4N4CC[C@H]3C4)c2)C1 (stereo partly shown) [Example 594]	A (EC1.5<1 μM)	≥ 150			
O=C(Nc1ccccn1)N1c2nc(-c3cncc(C(F)(F)F)c3)ccc2N2CC[C@H]1C2 [Example 316]	A (EC1.5<1 μM)	≥ 150			
N#Cc1cncc(-c2ccc3c(n2)N(C(=O)Nc2ccccn2)[C@H]2CCN3C2)c1 [Example 373]	A (EC1.5<1 μM)	≥ 150			
O=C(NCCCc1ccncc1)N1c2nc(-c3cccc(C(F)(F)F)c3)ccc2N2CC[C@H]1C2 [Example 633]			B (EC1.5 1-25 μM)	≥ 150	
O=C(Nc1ccccn1)N1c2nc(-c3cncc(Cl)c3)ccc2N2CC[C@H]1C2 [Example 260]	A (EC1.5<1 μM)	≥ 150			
Cc1nn(C)cc1-c1ccc2c(n1)N(C(=O)Nc1cccnc1)[C@H]1CCN2C1 [Example 488]	B (EC1.5 1-25 μM)	≥ 150			
CC(C)(C)OC(=O)N1CCCN(c2ccc3c(n2)N(C(=O)Nc2ccncn2)[C@H]2CCCN3C2)CC1 [Example 382]	C (EC1.5>25 μM)	< 150			
Cc1cncc(-c2ccc3c(n2)N(C(=O)Nc2cnccn2)[C@H]2CCCN3C2)c1 [Example 512]	B (EC1.5 1-25 μM)	≥ 150			
Cc1cncc(NC(=O)N2c3nc(-c4cccc(Cl)c4)ccc3N3C[C@@H](O)[C@H]2C3)c1 [Example 676]			A (EC1.5<1 μM)	≥ 150	
O=C(Nc1cccnc1)N1c2nc(-c3cnn(-c4ccccc4)c3)ccc2N2CC[C@H]1C2 [Example 549]	B (EC1.5 1-25 μM)	≥ 150			
COc1cnc(NC(=O)N2c3nc(-c4cccc(Cl)c4)ccc3N3CC[C@H]2C3)cn1 [Example 124]				≥ 150	B (EC1.5 1-25 μM)
NCc1cccc(NC(=O)N2c3nc(-c4cccc(C(F)(F)F)c4)ccc3N3CCC[C@H]2C3)c1 [Example 757]			A (EC1.5<1 μM)	≥ 150	
Cc1ccc(-c2ccc3c(n2)N(C(=O)Nc2ccccn2)[C@H]2CCN3C2)cn1 [Example 221]	B (EC1.5 1-25 μM)	≥ 150			
CC(C)(C)OC(=O)NCC#Cc1cc(NC(=O)N2c3nc(-c4cccc(C(F)(F)F)c4)ccc3N3CC[C@H]2C3)cc(-c2cnco2)c1 [Example 749]			A (EC1.5<1 μM)	≥ 150	
C#CCNc1nccc(NC(=O)N2c3nc(-c4cccc(C5(C(F)(F)F)N=N5)c4)ccc3N3CC[C@H]2C3)n1 [Example 804]			A (EC1.5<1 μM)	≥ 150	
O=C(NCCCN1CCOCC1)N1c2nc(-c3cccc(C(F)(F)F)c3)ccc2N2CC[C@H]1C2 [Example 612]	B (EC1.5 1-25 μM)	≥ 150			
O=C(Nc1cccc(-c2cnco2)c1)N1c2nc(-c3cncc(C(F)(F)F)c3)ccc2N2C[C@@H](O)[C@H]1C2 [Example 709]			A (EC1.5<1 μM)	≥ 150	
Cc1ccncc1-c1ccc2c(n1)N(C(=O)Nc1cnccn1)[C@H]1CCCN2C1 [Example 513]	C (EC1.5>25 μM)	≥ 150			

SMILES	Tryp AVG EC1.5 (μM) [1]	Emax (Trp peptide substrate) [%]	Tryp AVG EC1.5 (μM) [2]	Emax (Trp mass spectrometry assay) [%]	Tryp AVG EC1.5 (μM) [3]
O=C(Nc1cnccn1)N1c2nc(-c3ccnc(F)c3)ccc2N2CC[C@H]1C2 [Example 284]	B (EC1.5 1-25 μM)	≥ 150			
O=C(Nc1cnccn1)N1c2nc(-c3cncc(C(F)(F)F)c3)ccc2N2CCC[C@H]1C2 [Example 452]	A (EC1.5<1 μM)	≥ 150			
COc1cc(NC(=O)N2c3nc(-c4cnccc4C)ccc3N3CCC[C@H]2C3)ncn1 [Example 511]	C (EC1.5>25 μM)	< 150			
O=C(Nc1ccc(F)cn1)N1c2nc(-c3cccc(C(F)(F)F)c3)ccc2N2CCC[C@H]1C2 [Example 39]				≥ 150	
O=C(Nc1cccnc1)N1c2nc(N3CCCC(C(F)(F)F)C3)ccc2N2CCC[C@@H]1C2 (stereo partly shown) [Example 302]	B (EC1.5 1-25 μM)	≥ 150			
CC(=O)O[C@@H]1CN2C[C@H]1N(C(=O)Nc1ccccn1)c1nc(-c3cccc(C(F)(F)F)c3)ccc12 [Example 602]	B (EC1.5 1-25 μM)	≥ 150			
O=C(Nc1ccncn1)N1c2nc(-c3cccc(Cl)c3)ccc2N2CC[C@@H]1C2 [Example 234]	B (EC1.5 1-25 μM)	≥ 150			
O=C(Nc1ccncc1F)N1c2nc(-c3ccnc(C(F)(F)F)c3)ccc2N2CC[C@H]1C2 [Example 151]				≥ 150	A (EC1.5<1 μM)
Cn1ccc(NC(=O)N2c3nc(-c4cccc(Cl)c4)ccc3N3CC[C@H]2C3)n1 [Example 109]				≥ 150	B (EC1.5 1-25 μM)
O=C(Nc1ccc(F)cn1)N1c2nc(-c3cccc(OC(F)(F)F)c3)ccc2N2CC[C@H]1C2 [Example 129]				≥ 150	A (EC1.5<1 μM)
Cc1ccc(-c2ccc3c(n2)N(C(=O)Nc2cnccn2)[C@H]2CCN3C2)cn1 [Example 236]	B (EC1.5 1-25 μM)	≥ 150			
COc1cc(NC(=O)N2c3nc(-c4cccc(Cl)c4)ccc3N3CCC[C@H]2C3)ncn1 [Example 408]	A (EC1.5<1 μM)	≥ 150			
CC(C)(C)OC(=O)N1CCC(c2cccc(NC(=O)N3c4nc(-c5cccc(C(F)(F)F)c5)ccc4N4CC[C@H]3C4)c2)C1 (stereo partly shown) [Example 592]	A (EC1.5<1 μM)	≥ 150			
O=C(Nc1cnccn1)N1c2nc(-c3ccnc(N4CC[C@H](F)C4)c3)ccc2N2CC[C@H]1C2 [Example 436]	A (EC1.5<1 μM)	≥ 150			
CC(C)(C)OC(=O)NCc1cccc(-c2ccc3c(n2)C(C(=O)Nc2ccncc2)[C@H]2CCN3C2)c1 (stereo partly shown) [Example 794]			B (EC1.5 1-25 μM)	≥ 150	
O=C(Nc1cc(-c2cnco2)ccn1)N1c2nc(-c3cccc(C(F)(F)F)c3)ccc2N2C[C@@H](O)[C@H]1C2 [Example 662]			B (EC1.5 1-25 μM)	≥ 150	
O=C(Nc1cnccn1)N1c2nc(-c3cc(Cl)cc(Cl)c3)ccc2N2CC[C@H]1C2 [Example 364]	B (EC1.5 1-25 μM)	≥ 150			
CN(C)c1ccnc(NC(=O)N2c3nc(N4CCCC(C(F)(F)F)C4)ccc3N3CC[C@H]2C3)n1 (stereo partly shown) [Example 217]				≥ 150	B (EC1.5 1-25 μM)
